Results from patent publication US9573954B2, “Pyrazolopyrimidine compounds” (University Health Network, priority 2012, dated 2017).

Columns and labels:
[1] = tested on: breast cancer cells (MDA-MB-468); experiment: Cancer cell line growth inhibition, Sulforhodamine B assay, MDA-MB-468; type: cell-based; conditions: Homo sapiens, MDA-MB-468, 120 h, Table 1; MDA-MB-468, 5 days, SRB; read-out: Cancer Cell Line GI50 Range MDA-MB-468
Method in brief: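 Sulforhodamine B staining (TCA-fixed, read at 570 nm) estimates cell mass after 5-day compound treatment of MDA-MB-468 cells, final concentrations 10 nM to 50 μM in 10% FBS DMEM. GI50 derived from growth inhibition versus DMSO controls.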

human TTK = target: T1, human TTK (Homo sapiens, UniProt P33981); experiment: TTK inhibition assay (indirect ELISA); type: biochemical; conditions: Table 1; 16 μM ATP (asterisk); read-out: TTK IC50 Range
T1 construct: Active TTK was purchased from Invitrogen as an amino terminal GST fusion of full length human TTK; purchased Invitrogen
T1 sequence (P33981 1-857): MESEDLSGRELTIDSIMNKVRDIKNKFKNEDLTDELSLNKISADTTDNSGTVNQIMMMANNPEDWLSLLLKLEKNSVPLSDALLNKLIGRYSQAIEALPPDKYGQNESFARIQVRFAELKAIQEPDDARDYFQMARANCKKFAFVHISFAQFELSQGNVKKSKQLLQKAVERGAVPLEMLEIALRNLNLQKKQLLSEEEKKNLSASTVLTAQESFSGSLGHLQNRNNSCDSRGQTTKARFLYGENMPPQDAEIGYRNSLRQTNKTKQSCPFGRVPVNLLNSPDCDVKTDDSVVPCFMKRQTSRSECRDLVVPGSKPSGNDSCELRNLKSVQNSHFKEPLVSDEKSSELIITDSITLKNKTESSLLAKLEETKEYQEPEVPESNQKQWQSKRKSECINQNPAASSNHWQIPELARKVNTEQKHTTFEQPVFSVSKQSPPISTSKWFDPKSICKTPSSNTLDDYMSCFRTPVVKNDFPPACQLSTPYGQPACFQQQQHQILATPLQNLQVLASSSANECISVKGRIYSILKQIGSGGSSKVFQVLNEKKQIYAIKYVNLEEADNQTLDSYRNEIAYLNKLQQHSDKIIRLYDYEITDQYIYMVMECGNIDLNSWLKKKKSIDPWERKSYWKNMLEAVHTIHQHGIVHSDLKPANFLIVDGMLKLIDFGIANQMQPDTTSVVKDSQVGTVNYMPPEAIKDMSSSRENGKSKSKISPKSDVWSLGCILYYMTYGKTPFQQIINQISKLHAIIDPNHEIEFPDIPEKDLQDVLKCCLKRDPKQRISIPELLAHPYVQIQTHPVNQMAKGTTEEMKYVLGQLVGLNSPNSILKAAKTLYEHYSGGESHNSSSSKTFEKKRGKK
Method in brief: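 Activity detected by indirect ELISA after compounds sat with full-length GST-TTK for 5 min prior to starting the reaction with ATP. IC50 came from a four-parameter logistic curve of % inhibition, calculated against background and uninhibited control wells.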

[2] = tested on: Ovarian 2393A tumor initiating cells; experiment: Tumor-initiating cell growth inhibition, Alamar Blue assay, ovarian TICs; type: cell-based; conditions: 144 h; Table 1; ovarian TICs, 6 days, Alamar Blue; read-out: Tumor Initiating Cell GI50 Range Ovarian 2393A
Description: (§1) Non-tissue or tissue cultured treated T-75 flask and 96-well plates were purchased from VWR. Vitamin B-27 supplement, MEM NEAA (minimum essential medium non essential amino acids), sodium pyruvate, L-glutamine, N2 supplement, penicillin-streptomycin and fungizone/amphotericin B were obtained from Invitrogen. Lipid mixture, heparin and EGF were purchased from Sigma; bFGF from BD Biosciences. Tumor Initiating Cells (TICs) from colon were routinely maintained using non-tissue cultured treated T-75 flasks in DMEM:F12 medium containing 0.2XB-27 supplement, 4 ug/ml heparin, 1×MEM NEAA, 1×sodium pyruvate, 1 mM glutamine, 10 pg/ul bFGF, 20 pg/ul EGF, 1× N2 supplement, lipid mixture, penicillin-streptomycin and fungizone/amphotericin B. Ovarian TICs were routinely maintained using tissue cultured treated T-75 flasks in DMEM:F12 medium containing IXB-27 supplement, 4 ug/ml heparin, 20 pg/ul bFGF, 20 pg/ul EGF and penicillin-streptomycin.
(§2) Compounds described herein were dissolved in DMSO and further diluted in cell culture medium for GI50 determination. Colon TICs were trypsinized and seeded into non-tissue cultured treated 96-well plates with 4,000 cells/well. After 24 h, compound was added into the cell culture at different concentrations, and the final concentration of DMSO was adjusted to 0.1%. Cells were then cultured at 37° C. for 9 days. Ovarian TICs were trypsinized and seeded into tissue cultured treated 96-well plates with 1,000 cells/well. After 24 h, compound was added into the cell culture at different concentrations, and the final concentration of DMSO was adjusted to 0.1%. Cells were then cultured at 37° C. for 6 days. Cell viability was assessed by Alamar Blue assay: 10 ul of Alamar Blue was added into each well. After 4 hours incubation at 37° C., fluorescence was recorded at excitation 544 and emission 590. GI50 (Growth inhibition) was calculated using GraphPad Prism 4.0 software.
(§3) In Table 1 below, GI50 value ranges for compound examples against TICs (Colon 12 and Ovarian 2393A) are given.

[3] = tested on: colon cancer cells (HCT116); experiment: Cancer cell line growth inhibition, Sulforhodamine B assay, HCT116; type: cell-based; conditions: Homo sapiens, HCT-116, 120 h, Table 1; HCT116, 5 days, SRB; read-out: Cancer Cell Line GI50 Range HCT116
Method in brief: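 GI50 is calculated from growth inhibition relative to DMSO controls, using TCA-fixed, SRB-stained protein mass read at 570 nm. Compound, 10 nM–50 μM final in 10% FBS DMEM, was applied for 5 days to HCT116 cells that had been plated 24 h before at 1000–4000/well.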

[4] = tested on: ovarian cancer cells (PA-1); experiment: Cancer cell line growth inhibition, Sulforhodamine B assay, PA-1; type: cell-based; conditions: 120 h; Table 1; PA-1, 5 days, SRB; read-out: Cancer Cell Line GI50 Range PA-1
Description: Breast cancer cells (MDA-MB-231 and MDA-MB-468), colon cancer cells (HCT116) and ovarian cancer cells (PA-1 and OVCAR-3) were seeded (1000 to 4000 in 80 μl per well depending on the cell growth rate) into 96 well plates 24 hours before compound overlay. Compounds were prepared as 10 mM stock solutions in 100% DMSO which were diluted with DMEM (Dulbecco's Modified Eagle's Medium) cell growth Medium (Invitrogen, Burlington, ON, Canada) containing 10% FBS (Fetal Bovine Serum) to concentrations ranging from 50 nM to 250 μM. Aliquots (20 μl) from each concentration were overlaid to 80 μl of the pre-seeded cells in the 96 well plates to make final concentrations of 10 nM to 50 μM. The cells were cultured for 5 days before the Sulforhodamine B assay (SRB) was performed to determine the compound's cell growth inhibition activity.
Sulforhodamine B (purchased from Sigma, Oakville, ON, Canada) is a water-soluble dye that binds to the basic amino acids of the cellular proteins. Thus, colorimetric measurement of the bound dye provides an estimate of the total protein mass that is related to the cell number. the cells are fixed in situ by gently aspirating off the culture media and adding 50 μl ice cold 10% Trichloroacetic Acid (TCA) per well and incubate at 4° C. for 30-60 min, The plates are washed with H2O five times and allowed to air dry for 5 min. Addition of 50 μl 0.4% (w/v) SRB solution in 1% (v/v) acetic acid to each well and incubation for 30 min at RT completes the staining reaction. Following staining, plates are washed four times with 1% acetic acid to remove unbound dye and then allowed to air dry for 5 min. The stain is solubilized with 100 μl of 10 mM Tris pH 10.5 per well. Absorbance is read at 570 nm.
The percentage (%) of relative growth inhibition was calculated by comparing to DMSO treated only cells (100%). GI50's were determined for compounds with cytotoxic activity. The GI50 was calculated using GraphPad PRISM software (GraphPad Software, Inc., San Diego, Calif., USA).
In Table 1 below, GI50 value ranges for compound examples against breast cancer cell lines (MDA-MB-468), colon cancer cell lines (HCT116) and ovarian cancer cell lines (PA-1) are given.
In Table 2 below, GI50 value ranges for compound examples against breast cancer cell lines (MDA-MB-231), colon cancer cell lines (HCT116) and ovarian cancer cell lines (PA-1) are given.

[5] = tested on: Colon 12 tumor initiating cells; experiment: Tumor-initiating cell growth inhibition, Alamar Blue assay, colon TICs; type: cell-based; conditions: 216 h; Table 1; colon TICs, 9 days, Alamar Blue; read-out: Tumor Initiating Cell GI50 Range Colon 12
Description: as §1, §2, §3

| GI50 [1] [nM] | IC50 (human TTK) [nM] | GI50 [2] [nM] | GI50 [3] [nM] | GI50 [4] [nM] | GI50 [5] [nM] | SMILES |
| --- | --- | --- | --- | --- | --- | --- |
| 100 to 500 | < 100 | 100 to 500 | 100 to 500 | ≤ 100 | ≤ 100 | Cc1cc(-c2cnn3c(NCC4CCOCC4)nc(NC4CCCC4)nc23)ccc1C(=O)NC1CC1 [Example A2, 4-(2-(Cyclopentylamino)-4-(((tetrahydro-2H-pyran-4-yl)methyl)amino)pyrazolo[1,5-a][1,3,5]triazin-8-yl)-N-cyclopropyl-2-methylbenzamide] |
| ≤ 100 | < 100 | 100 to 500 | ≤ 100 | ≤ 100 | ≤ 100 | Cc1cc(-c2cnn3c(NCC4CCOCC4)nc(Oc4ccccc4)nc23)ccc1C(=O)NC1CC1 [Example A3, N-cyclopropyl-2-methyl-4-(2-phenoxy-4-(((tetrahydro-2H-pyran-4-yl)methyl)amino)pyrazolo[1,5-a][1,3,5]triazin-8-yl)benzamide] |
| 100 to 500 | < 100 | 100 to 500 | 100 to 500 | 100 to 500 | ≤ 100 | O=C(NC1CC1)c1ccc(-c2cnn3c(NCC4CCOCC4)nc(Oc4ccccc4)nc23)cc1Cl [Example A4, 2-Chloro-N-cyclopropyl-4-(2-phenoxy-4-(((tetrahydro-2H-pyran-4-yl)methyl)amino)pyrazolo[1,5-a][1,3,5]triazin-8-yl)benzamide] |
| > 500 | < 100 | > 500 | 100 to 500 | 100 to 500 | 100 to 500 | O=C(NC1CC1)c1ccc(-c2cnn3c(NCC4CCOCC4)nc(OC4CCCC4)nc23)cc1Cl [Example A5, 2-chloro-4-(2-(cyclopentyloxy)-4-(((tetrahydro-2H-pyran-4-yl)methyl)amino)pyrazolo[1,5-a][1,3,5]triazin-8-yl)-N-cyclopropylbenzamide] |
| > 500 | < 100 | 100 to 500 | 100 to 500 | ≤ 100 | 100 to 500 | O=C(NC1CC1)c1ccc(-c2cnn3c(NCC4CCOCC4)nc(N4CCOCC4)nc23)cc1Cl [Example A6, 2-chloro-N-cyclopropyl-4-(2-morpholino-4-(((tetrahydro-2H-pyran-4-yl)methyl)amino)pyrazolo[1,5-a][1,3,5]triazin-8-yl)benzamide] |
| > 500 | < 100 | > 500 | > 500 | 100 to 500 | > 500 | O=C(NC1CC1)c1ccc(-c2cnn3c(NCCN4CCOCC4)nc(Oc4ccccc4)nc23)cc1 [Example A7, N-cyclopropyl-4-(4-((2-morpholinoethyl)amino)-2-phenoxypyrazolo[1,5-a][1,3,5]triazin-8-yl)benzamide] |
| > 500 | > 500 |  | > 500 | > 500 |  | O=C(NC1CC1)c1ccc(-c2cnn3c(NCCN4CCOCC4)nc(Oc4cccnc4)nc23)cc1 [Example A8, N-cyclopropyl-4-(4-((2-morpholinoethyl)amino)-2-(pyridin-3-yloxy)pyrazolo[1,5-a][1,3,5]triazin-8-yl)benzamide] |
| > 500 | < 100 |  | 100 to 500 | 100 to 500 |  | O=C(NC1CC1)c1ccc(-c2cnn3c(NCC4CCOCC4)nc(Oc4ccccc4)nc23)cc1 [Example A10, N-cyclopropyl-4-(2-phenoxy-4-(((tetrahydro-2H-pyran-4-yl)methyl)amino)pyrazolo[1,5-a][1,3,5]triazin-8-yl)benzamide] |
| > 500 | < 100 |  | 100 to 500 | 100 to 500 |  | O=C(NC1CC1)c1ccc(-c2cnn3c(NCC4CCOCC4)nc(OC4CCCC4)nc23)cc1 [Example A11, 4-(2-(cyclopentyloxy)-4-(((tetrahydro-2H-pyran-4-yl)methyl)amino)pyrazolo[1,5-a][1,3,5]triazin-8-yl)-N-cyclopropylbenzamide] |
| > 500 | < 100 |  | > 500 | 100 to 500 |  | O=C(NC1CC1)c1ccc(-c2cnn3c(NCC4CCOCC4)nc(Oc4cccnc4)nc23)cc1 [Example A13, N-cyclopropyl-4-(2-(pyridin-3-yloxy)-4-(((tetrahydro-2H-pyran-4-yl)methyl)amino)-pyrazolo[1,5-a][1,3,5]triazin-8-yl)benzamide] |
